System: Klebsiella isolates
Assay: Antibiotic susceptibility of Klebsiella clinical isolates per 7-SNP clonotype (Lookup Table 1; disk diffusion)
Format: cell-based, Klebsiella spp.
Description: In further embodiments, the Lookup Table is Lookup Table 1. The information contained in Lookup Table 1 below was obtained from urine specimens from patients with Klebsiella infections from several clinics within different regions of the United States. CT=clonotypes determined using a 7-SNP combination: phoE54; rpoB130; infB279; mdh315; phoE336; phoE354; and mdh429.
Next, antibiotic resistance was determined for all 387 Klebsiella isolates in the discovery set. Antibiotic testing was carried out according to the standard disk diffusion method as described in the Clinical and Laboratory Standards Institute (M100 Performance Standards for Antimicrobial Susceptibility Testing, 27th Edition, 2017). […] Since almost all Klebsiella isolates are known to be resistant to AMP and sensitive to IMI, TET is not used for treatment of urinary tract infections, and ESBL production is partially reflected in resistance to CTR, these antibiotics were not included for further analysis.
To aid in clinical decision-making and to translate clonotype information to treatment selection, Lookup Table 1 was generated. […] The information contained in Lookup Table 1 was obtained from urine specimens from patients with Klebsiella infections from several clinics within different regions of the United States. Indications of allowance or non-recommendation were determined based on a 20% resistance threshold to the indicated antibiotic; i.e., the antibiotic is recommended when more than 80% of the tested isolates within the indicated clonotype were susceptible to the indicated antibiotic, and was cautioned against when less than 80% of the isolates were susceptible to the antibiotic.

CN(C)[C@@H]1C(O)=C(C(N)=O)C(=O)[C@@]2(O)C(O)=C3C(=O)c4c(O)cccc4[C@@](C)(O)[C@H]3C[C@@H]12 [TET, tetracycline]
susceptibility, % (CT 000): 93%
susceptibility, % (CT 001): 0%
susceptibility, % (CT 010): 67%
susceptibility, % (CT 011): 73%
susceptibility, % (CT 031): 67%
susceptibility, % (CT 040): 50%
susceptibility, % (CT 050): 76%
susceptibility, % (CT 051): 85%
susceptibility, % (CT 071): 80%
susceptibility, % (CT 100): 100%
susceptibility, % (CT 110): 100%
susceptibility, % (CT 111): 90%
susceptibility, % (CT 130): 88%
susceptibility, % (CT 131): 52%
susceptibility, % (CT 141): 100%
susceptibility, % (CT 150): 80%
susceptibility, % (CT 151): 75%
susceptibility, % (CT 160): 100%
susceptibility, % (CT 170): 91%
susceptibility, % (CT 171): 81%
susceptibility, % (CT 200): 83%
susceptibility, % (CT 201): 83%
susceptibility, % (CT 210): 76%
susceptibility, % (CT 211): 88%
susceptibility, % (CT 230): 0%
susceptibility, % (CT 231): 100%
susceptibility, % (CT 240): 100%
susceptibility, % (CT 241): 100%
susceptibility, % (CT 250): 85%
susceptibility, % (CT 251): 83%
susceptibility, % (CT 271): 79%
susceptibility, % (CT 300): 0%
susceptibility, % (CT 301): 88%
susceptibility, % (CT 310): 93%
susceptibility, % (CT 311): 80%
susceptibility, % (CT 330): 80%
susceptibility, % (CT 331): 75%
susceptibility, % (CT 350): 83%
susceptibility, % (CT 351): 86%
susceptibility, % (CT 370): 75%
susceptibility, % (CT 371): 100%
susceptibility, % (CT 411): 100%
susceptibility, % (CT 450): 83%
susceptibility, % (CT 451): 100%
susceptibility, % (CT 510): 100%
susceptibility, % (CT 511): 100%
susceptibility, % (CT 530): 75%
susceptibility, % (CT 531): 100%
susceptibility, % (CT 550): 75%
susceptibility, % (CT 551): 93%
susceptibility, % (CT 570): 75%
susceptibility, % (CT 571): 100%
susceptibility, % (CT 611): 67%
susceptibility, % (CT 630): 100%
susceptibility, % (CT 650): 83%
susceptibility, % (CT 651): 92%
susceptibility, % (CT 670): 100%
susceptibility, % (CT 710): 67%
susceptibility, % (CT 730): 79%
susceptibility, % (CT 731): 85%
susceptibility, % (CT 750): 95%
susceptibility, % (CT 751): 100%
susceptibility, % (CT 771): 100%
susceptibility, % (CT Any Klebsiella spp.): 82%

O=C1CN(/N=C/c2ccc([N+](=O)[O-])o2)C(=O)N1 [NIT, nitrofurantoin]
susceptibility, % (CT 000): 91%
susceptibility, % (CT 001): 0%
susceptibility, % (CT 010): 33%
susceptibility, % (CT 011): 82%
susceptibility, % (CT 031): 100%
susceptibility, % (CT 040): 50%
susceptibility, % (CT 050): 33%
susceptibility, % (CT 051): 56%
susceptibility, % (CT 071): 60%
susceptibility, % (CT 100): 86%
susceptibility, % (CT 110): 0%
susceptibility, % (CT 111): 30%
susceptibility, % (CT 130): 70%
susceptibility, % (CT 131): 56%
susceptibility, % (CT 141): 0%
susceptibility, % (CT 150): 42%
susceptibility, % (CT 151): 41%
susceptibility, % (CT 160): 0%
susceptibility, % (CT 170): 39%
susceptibility, % (CT 171): 28%
susceptibility, % (CT 200): 97%
susceptibility, % (CT 201): 66%
susceptibility, % (CT 210): 57%
susceptibility, % (CT 211): 81%
susceptibility, % (CT 230): 0%
susceptibility, % (CT 231): 50%
susceptibility, % (CT 240): 100%
susceptibility, % (CT 241): 0%
susceptibility, % (CT 250): 50%
susceptibility, % (CT 251): 57%
susceptibility, % (CT 271): 50%
susceptibility, % (CT 300): 0%
susceptibility, % (CT 301): 64%
susceptibility, % (CT 310): 47%
susceptibility, % (CT 311): 60%
susceptibility, % (CT 330): 15%
susceptibility, % (CT 331): 53%
susceptibility, % (CT 350): 54%
susceptibility, % (CT 351): 59%
susceptibility, % (CT 370): 25%
susceptibility, % (CT 371): 25%
susceptibility, % (CT 411): 50%
susceptibility, % (CT 450): 50%
susceptibility, % (CT 451): 67%
susceptibility, % (CT 510): 0%
susceptibility, % (CT 511): 100%
susceptibility, % (CT 530): 31%
susceptibility, % (CT 531): 33%
susceptibility, % (CT 550): 19%
susceptibility, % (CT 551): 18%
susceptibility, % (CT 570): 25%
susceptibility, % (CT 571): 50%
susceptibility, % (CT 611): 50%
susceptibility, % (CT 630): 0%
susceptibility, % (CT 650): 63%
susceptibility, % (CT 651): 35%
susceptibility, % (CT 670): 0%
susceptibility, % (CT 710): 67%
susceptibility, % (CT 730): 36%
susceptibility, % (CT 731): 67%
susceptibility, % (CT 750): 50%
susceptibility, % (CT 751): 33%
susceptibility, % (CT 771): 57%
susceptibility, % (CT Any Klebsiella spp.): 59%

C[C@@H](O)[C@H]1C(=O)N2C(C(=O)O)=C(SCCN=CN)C[C@H]12 [IMI, imipenem]
susceptibility, % (CT 000): 100%
susceptibility, % (CT 001): 100%
susceptibility, % (CT 010): 100%
susceptibility, % (CT 011): 100%
susceptibility, % (CT 031): 67%
susceptibility, % (CT 040): 75%
susceptibility, % (CT 050): 100%
susceptibility, % (CT 051): 100%
susceptibility, % (CT 071): 100%
susceptibility, % (CT 100): 100%
susceptibility, % (CT 110): 100%
susceptibility, % (CT 111): 100%
susceptibility, % (CT 130): 100%
susceptibility, % (CT 131): 98%
susceptibility, % (CT 141): 100%
susceptibility, % (CT 150): 99%
susceptibility, % (CT 151): 100%
susceptibility, % (CT 160): 100%
susceptibility, % (CT 170): 96%
susceptibility, % (CT 171): 97%
susceptibility, % (CT 200): 100%
susceptibility, % (CT 201): 100%
susceptibility, % (CT 210): 100%
susceptibility, % (CT 211): 100%
susceptibility, % (CT 230): 100%
susceptibility, % (CT 231): 100%
susceptibility, % (CT 240): 100%
susceptibility, % (CT 241): 100%
susceptibility, % (CT 250): 100%
susceptibility, % (CT 251): 100%
susceptibility, % (CT 271): 100%
susceptibility, % (CT 300): 100%
susceptibility, % (CT 301): 100%
susceptibility, % (CT 310): 100%
susceptibility, % (CT 311): 100%
susceptibility, % (CT 330): 100%
susceptibility, % (CT 331): 100%
susceptibility, % (CT 350): 100%
susceptibility, % (CT 351): 100%
susceptibility, % (CT 370): 100%
susceptibility, % (CT 371): 100%
susceptibility, % (CT 411): 100%
susceptibility, % (CT 450): 100%
susceptibility, % (CT 451): 100%
susceptibility, % (CT 510): 100%
susceptibility, % (CT 511): 100%
susceptibility, % (CT 530): 100%
susceptibility, % (CT 531): 100%
susceptibility, % (CT 550): 98%
susceptibility, % (CT 551): 75%
susceptibility, % (CT 570): 100%
susceptibility, % (CT 571): 100%
susceptibility, % (CT 611): 100%
susceptibility, % (CT 630): 100%
susceptibility, % (CT 650): 100%
susceptibility, % (CT 651): 100%
susceptibility, % (CT 670): 100%
susceptibility, % (CT 710): 100%
susceptibility, % (CT 730): 98%
susceptibility, % (CT 731): 100%
susceptibility, % (CT 750): 100%
susceptibility, % (CT 751): 100%
susceptibility, % (CT 771): 100%
susceptibility, % (CT Any Klebsiella spp.): 99%
